Entries after “also recorded” stand apart in the source; their conditions may differ. Marks after values point to notes of the source that are not given here.
Key:
[1] = system: HT-29 (colorectal carcinoma); assay: In vitro antiproliferative activity, Alamar Blue assay; type: cell-based; conditions: Homo sapiens; HT-29, 24 h treatment, then three days culture, n = 2; read-out: IC50 ± SD
Experimental: (§1) For the experiments, the following human cell lines were used: A2058 (melanoma, derived from metastatic site: lymph node), HepG2 (hepatocellular carcinoma), U87 (glioblastoma), HT-29 (colorectal carcinoma) and HL-60 (acute promyelocytic leukaemia). Cell lines were generous gifts from Dr. […] (Department of Experimental Pharmacology, National Institute of Oncology, Budapest, Hungary). […] The cultures were maintained at 37 °C in a humidified atmosphere with 5% CO2. The cells were grown to confluency and then divided into 96-well tissue culture plates (Sarstedt, Nümbrecht, Germany) with an initial cell number of 5000 cells/well. Cells were incubated at 37 °C in a 5% CO2 humidified atmosphere overnight. Before the assay, 50 μL of the supernatant was removed and replaced with a 50 μL serum-free medium (SFM). […] The cells were treated for 24 h with the compounds and negative control cells (no compound control) were treated with SFM only (incubated at 37 °C). […] The percentage of cytostasis was calculated with the following equation: […] Data were evaluated with Excel (version: 365; Microsoft, Redmond, WA, USA) and the curves were defined using Microcal OriginPro (version: 2018; OriginLab, Northampton, MA, USA) software. In each case, two independent experiments were carried out with four parallel measurements and the mean IC50 values together with ±SD were represented. The Excel (version: 365) (Microsoft, Redmond, WA, USA) and Microcal OriginPro (version: 2018) (OriginLab, Northampton, MA, USA) softwares were used for data evaluation.

[2] = system: HepG2 (hepatocellular carcinoma); assay: as above; type: cell-based; conditions: Homo sapiens; HepG2, 24 h treatment, then three days culture, n = 2; read-out: IC50 ± SD
Experimental: as §1

[3] = system: A2058 (melanoma, derived from metastatic site: lymph node); assay: as above; type: cell-based; conditions: Homo sapiens; A2058, 24 h treatment, then three days culture, n = 2; read-out: IC50 ± SD
Experimental: as §1

U87 (glioblastoma) = assay: as above; type: cell-based; conditions: Homo sapiens; U87, 24 h treatment, then three days culture, n = 2; read-out: IC50 ± SD
Experimental: as §1

[4] = system: HL-60 (acute promyelocytic leukaemia); assay: as above; type: cell-based; conditions: Homo sapiens; HL-60, 24 h treatment, then three days culture, n = 2; read-out: IC50 ± SD
Experimental: as §1

[5] = Storage stability in solutions and hornbeam bark extracts (UHPLC-DAD); type: physicochemical; conditions: for k / t1/2: storage 23 weeks
Experimental: For the analysis of the samples from the chemical stability as well as the PAMPA studies, sample concentrations were determined using our previously developed ultrahigh-performance liquid chromatography–diode array detection (UHPLC-DAD) method validated for linearity, precision and accuracy. Briefly, an ACQUITY UPLC H-Class PLUS System hyphenated with a quaternary solvent delivery pump (QSM), an auto-sampler manager (FTN), a column compartment (CM) and a photodiode array (PDA) detector (Waters Corporation) was employed. Stationary phase: Acquity BEH C18 column (100 × 2.1 mm i.d., 1.7 µm; Waters Corporation), column temperature: 30 °C. The mobile phase consisted of 0.3% acetic acid in water (eluent A) and acetonitrile (eluent B). The following gradient elution was applied at a flow rate of 0.3 mL/min: 0 min 12.0% B, 19.0 min 13.5% B, 25.5 min 75.0% B, 26.0 min 100.0% B, 28.0 min 100.0% B, 28.5 min 12.0% B.
We used the following equations to calculate the first-order reaction rate constant (k) and the half-life (t1/2) indicating the time required to reduce the concentration of diarylheptanoids by 50% [29]:ln (ct/c0) = −k × t(1) t1/2 = −ln 0.5 × k^−1(2) where ct is the concentration of the diarylheptanoids at time t, c0 is the initial concentration, k is the reaction rate constant, t is the treatment time.
The chemical stability of the isolated compounds in solutions was examined at a concentration of 50 µg/mL in methanol and water (in the latter case using methanol as co-solvent, final composition: water-methanol 90:10, v/v). Furthermore, the methanol and ethyl acetate extracts of C. betulus bark (concentration 4 mg/mL) were also studied in order to assess the effects of the accompanying substances. The storage stability studies were performed at a neutral pH value. All solutions were filtered through Phenex-RC 15 mm, 0.2 μm syringe filters (Gen-Lab Ltd., Budapest, Hungary). The samples were prepared in triplicate and stored protected from light at 22 ± 2.0 °C, 5 ± 1.5 °C and −15 ± 2.0 °C for 23 weeks. Quantities of the analytes of interest were quantified at weeks 12 and 23 using the abovementioned UHPLC-DAD method (see Section 3.4).
The effects of the temperature and the medium (i.e., solvent and accompanying substances) were analysed through one-way analysis of variance (ANOVA) followed by Tukey’s post hoc HSD test (p < 0.05). To establish the kinetic parameters t1/2 and k, Equations (1) and (2) were applied, respectively.

[6] = 12 weeks, 5 °C, EE (ethyl acetate extract of bark)
[7] = 12 weeks, 5 °C, EM (methanol extract of bark)
[8] = 12 weeks, 5 °C, SA (aqueous solution)
[9] = 12 weeks, 5 °C, SM (methanol solution)
[10] = 12 weeks, 22 °C, EE (ethyl acetate extract of bark)
[11] = 12 weeks, 22 °C, EM (methanol extract of bark)
[12] = 12 weeks, 22 °C, SA (aqueous solution)
[13] = 12 weeks, 22 °C, SM (methanol solution)
[14] = 12 weeks, −15 °C, EE (ethyl acetate extract of bark)
[15] = 12 weeks, −15 °C, EM (methanol extract of bark)
[16] = 12 weeks, −15 °C, SA (aqueous solution)
[17] = 12 weeks, −15 °C, SM (methanol solution)
[18] = 23 weeks, 5 °C, EE (ethyl acetate extract of bark)
[19] = 23 weeks, 5 °C, EM (methanol extract of bark)
[20] = 23 weeks, 5 °C, SA (aqueous solution)
[21] = 23 weeks, 5 °C, SM (methanol solution)
[22] = 23 weeks, 22 °C, EE (ethyl acetate extract of bark)
[23] = 23 weeks, 22 °C, EM (methanol extract of bark)
[24] = 23 weeks, 22 °C, SA (aqueous solution)
[25] = 23 weeks, 22 °C, SM (methanol solution)
[26] = 23 weeks, −15 °C, EE (ethyl acetate extract of bark)
[27] = 23 weeks, −15 °C, EM (methanol extract of bark)
[28] = 23 weeks, −15 °C, SA (aqueous solution)
[29] = 23 weeks, −15 °C, SM (methanol solution)

IC50 [1] [µM]	IC50 [2] [µM]	IC50 [3] [µM]	IC50 (U87 (glioblastoma)) [µM]	IC50 [4] [µM]	concentration as compared to the initial value [5, 6]	concentration as compared to the initial value [5, 7]	concentration as compared to the initial value [5, 8]	concentration as compared to the initial value [5, 9]	concentration as compared to the initial value [5, 10]	concentration as compared to the initial value [5, 11]	concentration as compared to the initial value [5, 12]	concentration as compared to the initial value [5, 13]	concentration as compared to the initial value [5, 14]	concentration as compared to the initial value [5, 15]	concentration as compared to the initial value [5, 16]	concentration as compared to the initial value [5, 17]	concentration as compared to the initial value [5, 18]	concentration as compared to the initial value [5, 19]	concentration as compared to the initial value [5, 20]	Structure (SMILES)	other results
> 100	> 100	> 100	> 100	> 100	99.5 ± 0.4 ^#a %	99.9 ± 0.8 ^a %	99.9 ± 0.4 ^a %	99.4 ± 0.6 ^a %	100.2 ± 0.7 ^a %	101.1 ± 1.1 ^a %	100.4 ± 1.1 ^a %	99.7 ± 0.4 ^a %	100.1 ± 0.7 ^a %	99.8 ± 0.7 ^a %	99.1 ± 1.3 ^a %	99.1 ± 1.3 ^a %	100.1 ± 0.4 ^a %	99.2 ± 1.2 ^a %	99.9 ± 0.5 ^a %	O=C1CCc2ccc(O)c(c2)-c2cc(ccc2O)C[C@H](O)[C@H](O)[C@H]1O [Compound 2, carpinontriol B]	concentration as compared to the initial value [5, 21]: 99.2 ± 0.5 ^a %; concentration as compared to the initial value [5, 22]: 99.7 ± 0.5 ^a %; concentration as compared to the initial value [5, 23]: 99.7 ± 0.3 ^#a %; concentration as compared to the initial value [5, 24]: 99.8 ± 0.9 ^a %; concentration as compared to the initial value [5, 25]: 99.9 ± 0.6 ^a %; concentration as compared to the initial value [5, 26]: 99.8 ± 0.4 ^a %; concentration as compared to the initial value [5, 27]: 99.6 ± 0.7 ^a %; concentration as compared to the initial value [5, 28]: 99.1 ± 1.2 ^a %; concentration as compared to the initial value [5, 29]: 99.1 ± 1.2 ^a %; storage stability in methanol and aqueous solutions (in words) ([5]; SM and SA, −15, 5, 22 °C, weeks 12 and 23): stable; also recorded: good stability
> 100	> 100	> 100	> 100	> 100	100.8 ± 0.5 ^#bcd %	100.2 ± 1.1 ^bcd %	99.3 ± 0.1 ^#bcd %	99.0 ± 0.1 ^#bcd %	101.6 ± 2.2 ^#bc %	102.7 ± 0.9 ^#bc %	96.2 ± 0.1 ^#bcd %	84.5 ± 7.4 ^#a %	103.5 ± 0.2 ^b %	101.6 ± 3.1 ^#bc %	100.1 ± 0.6 ^bcd %	100.4 ± 1.2 ^bcd %	100.9 ± 1.3 ^bcd %	93.8 ± 1.3 ^#de %	99.1 ± 0.1 ^#bcd %	O=C1CCc2ccc(O)c(c2)-c2cc(ccc2O)C[C@@H](O)[C@H](O)C1 [Compound 3, giffonin X]	k ([5]; 5 °C, SA (aqueous solution)): 5.0 × 10^−4 Week^−1; t1/2 ([5]; 5 °C, SA (aqueous solution)): 1386.29 Week; k ([5]; 5 °C, SM (methanol solution)): 7.10 × 10^−3 Week^−1; t1/2 ([5]; 5 °C, SM (methanol solution)): 97.63 Week; k ([5]; 22 °C, SA (aqueous solution)): 5.90 × 10^−3 Week^−1; t1/2 ([5]; 22 °C, SA (aqueous solution)): 117.48 Week; k ([5]; 22 °C, SM (methanol solution)): 1.85 × 10^−2 Week^−1; t1/2 ([5]; 22 °C, SM (methanol solution)): 37.47 Week; concentration as compared to the initial value [5, 21]: 81.9 ± 1.0 ^#a %; concentration as compared to the initial value [5, 22]: 95.7 ± 0.5 ^#cd %; concentration as compared to the initial value [5, 23]: 95.6 ± 2.4 ^#cd %; concentration as compared to the initial value [5, 24]: 87.6 ± 0.7 ^#ae %; concentration as compared to the initial value [5, 25]: 67.1 ± 7.5 %; concentration as compared to the initial value [5, 26]: 101.1 ± 2.7 ^#bcd %; concentration as compared to the initial value [5, 27]: 97.6 ± 3.2 ^bcd %; concentration as compared to the initial value [5, 28]: 97.9 ± 2.9 ^bcd %; concentration as compared to the initial value [5, 29]: 95.8 ± 0.1 ^#cd %; k ([5]; −15 °C, SM (methanol solution)): 1.60 × 10^−3 Week^−1; t1/2 ([5]; −15 °C, SM (methanol solution)): 433.22 Week

Structure (SMILES)	IC50 [1] [µM]	IC50 [2] [µM]	IC50 [3] [µM]	IC50 (U87 (glioblastoma)) [µM]	IC50 [4] [µM]	concentration as compared to the initial value [5, 6]	concentration as compared to the initial value [5, 7]	concentration as compared to the initial value [5, 8]	concentration as compared to the initial value [5, 9]	concentration as compared to the initial value [5, 10]	concentration as compared to the initial value [5, 11]	concentration as compared to the initial value [5, 12]	concentration as compared to the initial value [5, 13]	concentration as compared to the initial value [5, 14]	concentration as compared to the initial value [5, 15]	concentration as compared to the initial value [5, 16]	concentration as compared to the initial value [5, 17]	concentration as compared to the initial value [5, 18]	concentration as compared to the initial value [5, 19]	concentration as compared to the initial value [5, 20]	other results
O=C1C[C@H](O)[C@@H](O)Cc2ccc(O)c(c2)-c2cc(ccc2O)C[C@H]1O [Compound 1, carpinontriol A]	> 100	> 100	14.9 ± 2.3	> 100	> 100	104.6 ± 1.0 ^#bcg %	110.1 ± 6.2 ^bc %	91.4 ± 0.2 ^#def %	90.8 ± 2.3 ^#def %	110.9 ± 3.6 ^#bc %	114.0 ± 2.2 ^#b %	61.7 ± 5.7 ^#a %	63.5 ± 8.7 ^#a %	100.5 ± 0.5 ^ceg %	108.7 ± 1.5 ^#bc %	93.5 ± 0.4 ^#ef %	94.0 ± 0.8 ^#efg %	92.1 ± 1.3 ^#def %	84.1 ± 1.1 ^#dfi %	87.2 ± 0.4 ^#dfi %	k ([5]; 5 °C, SA (aqueous solution)): 4.47 × 10^−3 Week^−1; t1/2 ([5]; 5 °C, SA (aqueous solution)): 147.48 Week; k ([5]; 5 °C, SM (methanol solution)): 1.40 × 10^−2 Week^−1; k ([5]; 22 °C, SA (aqueous solution)): 5.97 × 10^−2 Week^−1; t1/2 ([5]; 22 °C, SA (aqueous solution)): 11.61 Week; k ([5]; 22 °C, SM (methanol solution)): 4.53 × 10^−2 Week^−1; t1/2 ([5]; 22 °C, SM (methanol solution)): 15.30 Week; concentration as compared to the initial value [5, 21]: 67.1 ± 7.5 ^#aj %; concentration as compared to the initial value [5, 22]: 81.5 ± 3.9 ^#di %; concentration as compared to the initial value [5, 23]: 77.7 ± 2.9 ^#ij %; concentration as compared to the initial value [5, 24]: 23.0 ± 0.5 ^#h %; concentration as compared to the initial value [5, 25]: 32.3 ± 6.3 ^#h %; concentration as compared to the initial value [5, 26]: 91.3 ± 4.2 ^#def %; concentration as compared to the initial value [5, 27]: 88.3 ± 3.4 ^#dfi %; concentration as compared to the initial value [5, 28]: 93.7 ± 0.3 ^#efg %; concentration as compared to the initial value [5, 29]: 88.9 ± 3.1 ^#dfi %; k ([5]; −15 °C, SA (aqueous solution)): 1.70 × 10^−3 Week^−1; t1/2 ([5]; −15 °C, SA (aqueous solution)): 407.73 Week; k ([5]; −15 °C, SM (methanol solution)): 3.60 × 10^−3 Week^−1; t1/2 ([5]; −15 °C, SM (methanol solution)): 192.54 Week

Source: publication PMC10488193, “Evaluation of the Chemical Stability, Membrane Permeability and Antiproliferative Activity of Cyclic Diarylheptanoids from European Hornbeam (Carpinus betulus L.)” (International Journal of Molecular Sciences, 2023)
